Data published in patent publication US20070293443A1, “Composition for Accelerating Calcium Absorption” (Good Shusei Co. Ltd, priority 2004, published 2007).

Tests used:
[1] = Neutralization curve on dropwise addition of 0.05 N sodium hydroxide, buffering capacity (Example 9); assay type: physicochemical; details: 50 mL of 0.4% aqueous solution, 0.05 N sodium hydroxide added
Description: A sodium hydroxide solution at a concentration of 0.05 N was added to 50 mL of a 0.4% aqueous solution of the preparation of Example 9, and the changes in pH were obtained as shown in FIG. 3. […] In addition, 0.2% aqueous solutions of the preparation of Example 9, Comparative Example 1 and Comparative Example 2 were tasted. The 0.2% aqueous solution of the preparation of […] (pH 4.95), having the lowest pH among three, had the closest taste to water, no flavor, and thus it was indistinguishable from water. The preparations of Comparative Example 1 (pH 5.60) and Comparative Example 2 (pH 5.02) had clearly bitter tastes, even in small amount.
In addition, a sodium hydroxide solution at a concentration of 0.05 N was added to 50 mL of a 0.4% aqueous solution of L-arabono-γ-lactone and 50 mL of a 0.4% aqueous solution of D-glucono-δ-lactone, respectively, and the changes in pH were obtained as shown in FIG. 2.

[2] = test system: dietary calcium absorption; assay: Dietary calcium absorption accelerating effect, blood calcium level after oral calcium carbonate with test substance (Example 1); assay type: in vivo; details: male ICR mice, oral 5 mmol/kg calcium carbonate alone or with test substance (1.25-10.0 mmol/kg), up to 4 hours after administration
Text: For the experiment, 11-weeks old male ICR mice were used after overnight fasting. During the test period, the mice were given deionized water only. […] The doses of L-arabonic acid administered in combination were 1.25 mmol/kg (Group II), 2.5 mmol/kg (Group III), 5.0 mmol/kg (Group IV), and 10.0 mmol/kg (Group V), and the doses of D-gluconic acid were 2.5 mmol/kg (Group VI), 5.0 mmol/kg (Group VII), and 10.0 mmol/kg (Group VIII). […] The blood calcium level was quantified by a chelate colorimetric method (ortho-cresolphthalein complexone (OCPC) method). The obtained data were analyzed by a paired t-test, and a risk ratio of 5% or less was considered as significant difference.

[3] = test system: experimental osteoporosis induced by calcium-deficient diet; assay: Experimental osteoporosis induced by calcium-deficient diet (Example 7); assay type: in vivo, mice; details: for absorption rate of calcium in the digestive tract, fourth week / absorption rate of calcium in the digestive tract, second week: calcium-deficient diet mice; for Femur Ash content / Femur Ca content / Femur P content / Femur Weight / Tibia Ash content / Tibia Ca content / Tibia P content / Tibia Weight: 4 weeks
Description: (§1) Six-week old female ICR mice were divided into five groups (Groups I to V, 10 animals in each group), and fed calcium-deficient feed (calcium carbonate-free AIN 93M, Oriental Yeast Co., Ltd.) for 4 weeks to induce osteoporosis condition. Calcium L-arabonate was dissolved in water and orally administered daily in a dose of 1.25 mmol/kg (Group II) or 2.5 mmol/kg (Group III). The control group for pathological condition (Group I) was administered with water in the same manner. As a comparative group, a group administered with calcium D-gluconate (dose 2.5 mmol/kg (Group IV)) was provided. A normal control group (Group V) was separately provided and was given the normal feed (AIN 93M, Oriental Yeast Co., Ltd.). After administering the test substance on the second week and fourth week of initiation of the test, the animals were transferred to a metabolic cage, and feces were collected for 24 hours. The amount of calcium and phosphorus excreted in the feces were measured, and the absorption rates of ingested calcium and phosphorous in the digestive tract were determined. After completion of the test period, the animals of the respective groups were sacrificed to remove both femurs and tibiae. The femurs and tibiae were removed muscles etc., then immersed in 70% ethanol overnight, and dried at 60° C. for 24 hours to be used as samples for analysis. The measurement items were dry weight, ash content, calcium content, and phosphorus content. The ash content was measured by an ashing method at 550° C. for 18 hours, the calcium content was measured by an OCPC method (Calcium C-Test Wako, Wako Pure Chemical Industries, Ltd.), and the phosphorus content was measured by a p-methylaminophenol reduction method (Phospho C-Test Wako, Wako Pure Chemical Industries, Ltd.). The obtained data were analyzed by ANOVA and the Dunnett's method, and a risk ratio of 5% or less was considered as significant difference.

[4] = Blood calcium level after administration of calcium L-arabonate (Example 5); assay type: in vivo; details: male ICR mice, oral calcium L-arabonate 1.25, 2.5, 5.0 mmol/kg or calcium carbonate 5 mmol/kg, up to 4 hours
Description: For the experiment, 11-weeks old male ICR mice were used after overnight fasting. During the test period, the mice were given deionized water only. The mice were divided into four groups (Groups I to IV, 5 animals in each group), and the test substance was orally administered as a solution in deionized water. […] The blood calcium level was quantified by a chelating calorimetric method (ortho-cresolphthalein complexone (OCPC) method). The obtained data were analyzed by a paired t-test, and a risk ratio of 5% or less was considered as significant difference.

[5] = test system: mice; assay: Single oral administration safety test, LD50; assay type: in vivo
Text: As a result of a single oral test using mice, it was confirmed that the LD50 value of L-arabonic acid was about 10 g/kg, and thus L-arabonic acid was a material having high safety.
While it was discovered in Example 5 that the calcium moiety of calcium L-arabonate used in the invention was extremely readily-absorbable, it was shown in Example 6 that the L-arabonic acid moiety was extremely poorly absorbed in the digestive tract.

[6] = Kinetics of calcium L-arabonate in the digestive tract of rat (Example 6); assay type: in vivo
Description: For the experiment, 9 to 12-weeks old male Wistar rats were used after overnight fasting. After orally administering 2.5 mmol/kg of calcium L-arabonate, the animals were entered into a metabolic cage, and were sacrificed after 2 hours, after 6 hours, and after 24 hours, to remove the digestive tracts. The contents in each site of the digestive tract were recovered, respectively, and the amount of unaltered L-arabonic acid was quantified by the HPLC method. During the test period, the animals were given deionized water only.

[7] = test system: experimental osteoporosis induced by combination of ovary excision and calcium-deficient diet; assay: Experimental osteoporosis due to combination of ovary excision and calcium-deficient diet (Example 8); assay type: in vivo, mice; details: for absorption rate of calcium in the digestive tract, fourth week / absorption rate of calcium in the digestive tract, second week: ovary-excised mice on calcium-deficient diet; for Femur Ash content / Femur Ca content / Femur P content / Femur Weight / Tibia Ash content / Tibia Ca content / Tibia P content / Tibia Weight: 4 weeks
Description: as §1
Six-weeks old female ICR mice excised their ovaries were divided into 5 groups (Groups I to V, 10 animals in each group), and fed calcium-deficient feed (calcium carbonate-free AIN 93M, Oriental Yeast Co., Ltd.) for 4 weeks to induce osteoporosis condition. Calcium L-arabonate was dissolved in water, and orally administered daily in a dose of 1.25 mmol/kg (Group II) or 2.5 mmol/kg (Group III). The control group for pathological condition (Group I) was administered with water in the same manner. As a comparative group, a group administered with calcium D-gluconate (dose 2.5 mmol/kg (Group IV)) was provided. Also, a group excised ovaries but given with normal feed (AIN 93M, Oriental Yeast Co., Ltd.) (Group V) was separately provided. The measurement of the absorption rate of calcium in the digestive tract, and the analysis of femur and tibia were performed in the same manner as in Example 7.

[8] = 1.25 and 2.5 mmol/kg, versus pathological control and calcium D-gluconate group

For `O=C1O[C@@H](CO)[C@H](O)[C@H]1O` [L-arabono-γ-lactone], the buffering capacity [1] was “milder than that of D-glucono-δ-lactone” and the “change in blood calcium level” value [2] was “same effects as those of L-arabonic acid”.

In the case of `O=C([O-])[C@@H](O)[C@H](O)[C@H](O)CO.O=C([O-])[C@@H](O)[C@H](O)[C@H](O)CO.[Ca+2]` [calcium L-arabonate], the “absorption rates of phosphorus in the digestive tract” value ([3]; 1.25 and 2.5 mmol/kg, compared with calcium D-gluconate group) is reported as “tendency for higher absorption rates of phosphorus compared with the comparative group”, the “amelioration of weight, ash, calcium and phosphorus content of femur and tibia” value [3, 8] is reported as “ameliorated in all of the above indices in dose-dependent manner” and the “absorption rate of calcium in the digestive tract, fourth week” value (“absorption rate of calcium … fourth week” below) ([3]; dose 1.25 mmol/kg oral daily) is reported as 99.3%. The “absorption rate of calcium in the digestive tract, second week” value (“absorption rate of calcium … second week” for short) ([3]; dose 1.25 mmol/kg oral daily) was 93.1%, the “absorption rate of calcium … fourth week” value ([3]; dose 2.5 mmol/kg oral daily) was 80.1% and the “absorption rate of calcium … second week” value ([3]; dose 2.5 mmol/kg oral daily) was 87.9%. For the same compound, the “Femur Ash content” value ([3]; dose 1.25 mmol/kg oral daily) was 24 ± 0.7 mg, the “Femur Ca content” value ([3]; dose 1.25 mmol/kg oral daily) was 8.8 ± 0.22 mg and the “Femur P content” value ([3]; dose 1.25 mmol/kg oral daily) was 4.5 ± 0.09 mg. The “Femur Weight” value ([3]; dose 1.25 mmol/kg oral daily) was 44 ± 1.0 mg, the “Femur Ash content” value ([3]; dose 2.5 mmol/kg oral daily) was 27 ± 0.5 mg and the “Femur Ca content” value ([3]; dose 2.5 mmol/kg oral daily) was 9.5 ± 0.13 mg. The “Femur P content” value ([3]; dose 2.5 mmol/kg oral daily) was 5.1 ± 0.05 mg, the “Femur Weight” value ([3]; dose 2.5 mmol/kg oral daily) was 49 ± 1.1 mg and the “Tibia Ash content” value ([3]; dose 1.25 mmol/kg oral daily) was 23 ± 0.8 mg. The “Tibia Ca content” value ([3]; dose 1.25 mmol/kg oral daily) was 8.1 ± 0.28 mg, the “Tibia P content” value ([3]; dose 1.25 mmol/kg oral daily) was 4.2 ± 0.14 mg and the “Tibia Weight” value ([3]; dose 1.25 mmol/kg oral daily) was 43 ± 1.6 mg. The “Tibia Ash content” value ([3]; dose 2.5 mmol/kg oral daily) was 24 ± 0.5 mg, the “Tibia Ca content” value ([3]; dose 2.5 mmol/kg oral daily) was 9.1 ± 0.22 mg and the “Tibia P content” value ([3]; dose 2.5 mmol/kg oral daily) was 4.6 ± 0.05 mg. For the same compound, the “Tibia Weight” value ([3]; dose 2.5 mmol/kg oral daily) was 46 ± 1.2 mg, the “change in blood calcium level” value [4] was “dose-dependent increases in the blood calcium level” and the LD50 [5] was ≥ 7400 mg/kg. The “share of the total amount of administration remained in the cecum and the colon” value ([6]; after 24 hours, oral 2.5 mmol/kg calcium L-arabonate) was “About 23%”, the “absorption of the arabonic acid moiety in the small intestine” value ([6]; after oral administration of the calcium salt) was “hardly absorbed in the small intestine” and the “Residual ratio of L-arabonic acid after administration, Cecum, After 2 hrs” value ([6]; oral 2.5 mmol/kg calcium L-arabonate, cecum, 2 hrs) was 34.4 ± 5.81%. For the same compound, the “Residual ratio of L-arabonic acid after administration, Cecum, After 6 hrs” value ([6]; oral 2.5 mmol/kg calcium L-arabonate, cecum, 6 hrs) was 57.8 ± 2.27%, the “Residual ratio of L-arabonic acid after administration, Cecum, After 24 hrs” value ([6]; oral 2.5 mmol/kg calcium L-arabonate, cecum, 24 hrs) was 19.0 ± 15.67% and the “Residual ratio of L-arabonic acid after administration, Colon, After 2 hrs” value ([6]; oral 2.5 mmol/kg calcium L-arabonate, colon, 2 hrs) was 1.9 ± 0.76%. For the same compound, the “Residual ratio of L-arabonic acid after administration, Colon, After 6 hrs” value ([6]; oral 2.5 mmol/kg calcium L-arabonate, colon, 6 hrs) was 3.9 ± 1.30%, the “Residual ratio of L-arabonic acid after administration, Colon, After 24 hrs” value ([6]; oral 2.5 mmol/kg calcium L-arabonate, colon, 24 hrs) was 2.5 ± 0.95% and the “Residual ratio of L-arabonic acid after administration, Small intestine, After 2 hrs” value ([6]; oral 2.5 mmol/kg calcium L-arabonate, small intestine, 2 hrs) was 22.6 ± 4.85%. For the same compound, the “Residual ratio of L-arabonic acid after administration, Small intestine, After 6 hrs” value ([6]; oral 2.5 mmol/kg calcium L-arabonate, small intestine, 6 hrs) was 2.2 ± 1.08%, the “Residual ratio of L-arabonic acid after administration, Small intestine, After 24 hrs” value ([6]; oral 2.5 mmol/kg calcium L-arabonate, small intestine, 24 hrs) was 0.2 ± 0.08% and the “Residual ratio of L-arabonic acid after administration, Stomach, After 2 hrs” value ([6]; oral 2.5 mmol/kg calcium L-arabonate, stomach, 2 hrs) was 3.30 ± 1.34%. For the same compound, the “Residual ratio of L-arabonic acid after administration, Stomach, After 6 hrs” value ([6]; oral 2.5 mmol/kg calcium L-arabonate, stomach, 6 hrs) was 0.1 ± 0.06%, the “Residual ratio of L-arabonic acid after administration, Stomach, After 24 hrs” value ([6]; oral 2.5 mmol/kg calcium L-arabonate, stomach, 24 hrs) was 0% and the “amelioration of weight, ash, calcium and phosphorus content of femur and tibia” value [7, 8] was “ameliorated in all of the indices in dose-dependent manner”. For the same compound, the “absorption rate of calcium … fourth week” value ([7]; dose 1.25 mmol/kg oral daily) was 81.8%, the “absorption rate of calcium … second week” value ([7]; dose 1.25 mmol/kg oral daily) was 85.7% and the “absorption rate of calcium … fourth week” value ([7]; dose 2.5 mmol/kg oral daily) was 57.7%. For the same compound, the “absorption rate of calcium … second week” value ([7]; dose 2.5 mmol/kg oral daily) was 74.4%, the “Femur Ash content” value ([7]; dose 1.25 mmol/kg oral daily) was 25 ± 0.4 mg and the “Femur Ca content” value ([7]; dose 1.25 mmol/kg oral daily) was 8.8 ± 0.18 mg. The “Femur P content” value ([7]; dose 1.25 mmol/kg oral daily) was 4.7 ± 0.07 mg, the “Femur Weight” value ([7]; dose 1.25 mmol/kg oral daily) was 45 ± 0.9 mg and the “Femur Ash content” value ([7]; dose 2.5 mmol/kg oral daily) was 28 ± 0.8 mg. For the same compound, the “Femur Ca content” value ([7]; dose 2.5 mmol/kg oral daily) was 10.2 ± 0.24 mg, the “Femur P content” value ([7]; dose 2.5 mmol/kg oral daily) was 5.3 ± 0.11 mg and the “Femur Weight” value ([7]; dose 2.5 mmol/kg oral daily) was 50 ± 0.9 mg. The “Tibia Ash content” value ([7]; dose 1.25 mmol/kg oral daily) was 22 ± 0.3 mg, the “Tibia Ca content” value ([7]; dose 1.25 mmol/kg oral daily) was 8.2 ± 0.15 mg and the “Tibia P content” value ([7]; dose 1.25 mmol/kg oral daily) was 4.2 ± 0.05 mg. The “Tibia Weight” value ([7]; dose 1.25 mmol/kg oral daily) was 42 ± 0.8 mg, the “Tibia Ash content” value ([7]; dose 2.5 mmol/kg oral daily) was 25 ± 0.5 mg and the “Tibia Ca content” value ([7]; dose 2.5 mmol/kg oral daily) was 9.3 ± 0.23 mg. The “Tibia P content” value ([7]; dose 2.5 mmol/kg oral daily) was 4.7 ± 0.11 mg and the “Tibia Weight” value ([7]; dose 2.5 mmol/kg oral daily) was 46 ± 1.0 mg.
